# Reference: US20220289724A1, “KIF18A INHIBITORS” (AMGEN INC., priority 2019, published 2022)
# Biological target: T1, Recombinant human KIF18A (1-467 His-tagged) protein (Homo sapiens, UniProt Q8NI77)
# T1 construct: Recombinant human KIF18A (1-467 His-tagged) protein; His; made in house
# Test: KIF18A Enzyme Assay: microtubule-stimulated ATPase activity assay (ADP-Glo)
# Assay type: biochemical
# Settings: KIF18A protein 30 nM, 30 μg/mL pig microtubules, ATP at Km 75 μM, ADP-Glo luminescence, RT
# From the text: KIF18A Enzyme Assay: Microtubule-stimulated ATPase activity assay is used to measure KIF18A enzyme activity after treatment with compound. Compounds were 2-fold serially diluted in DMSO (Sigma Inc) over 22-point concentration range. Recombinant human KIF18A (1-467 His-tagged) protein was expressed using a baculovirus system and purified by affinity chromatography by Amgen Inc. Concentrations of KIF18A protein, microtubules (MT), and ATP in the reaction were optimized for standardized homogenous enzyme assay using ADP-Glorm Kinase/ATPase Assay Kit (Promega Inc). The assay measures ADP formed from the ATPase reaction. […] Concentration-response curve-fitting and IC50 determination was performed using Genedata Screener Software (Standard 15.0.1, Genedata Inc) with a four-parameter logistic regression fit model.
# Table A provides data for compounds exemplified in the present application and priority document thereof, as representative compounds of the present invention, as follows: chemical name (as named by either ACD software or ChemDraw (Professional 15.0)) and biological data (IC50 in μM). Ex. […] refers to Example No.
# T1 sequence (Q8NI77 1-467): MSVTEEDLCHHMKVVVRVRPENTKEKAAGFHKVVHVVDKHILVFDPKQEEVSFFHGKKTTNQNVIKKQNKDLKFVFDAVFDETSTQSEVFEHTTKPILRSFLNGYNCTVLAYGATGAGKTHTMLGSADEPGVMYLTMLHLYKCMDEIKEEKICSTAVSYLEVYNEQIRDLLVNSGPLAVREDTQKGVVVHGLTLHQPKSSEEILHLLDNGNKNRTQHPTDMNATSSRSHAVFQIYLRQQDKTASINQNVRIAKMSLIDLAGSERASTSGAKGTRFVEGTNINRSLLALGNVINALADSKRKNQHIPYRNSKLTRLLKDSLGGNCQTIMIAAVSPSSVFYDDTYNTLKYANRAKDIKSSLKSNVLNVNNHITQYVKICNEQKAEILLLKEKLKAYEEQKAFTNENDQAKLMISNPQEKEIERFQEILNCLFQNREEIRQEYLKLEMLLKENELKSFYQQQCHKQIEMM
# T1 sequence (P02550 whole entry partner): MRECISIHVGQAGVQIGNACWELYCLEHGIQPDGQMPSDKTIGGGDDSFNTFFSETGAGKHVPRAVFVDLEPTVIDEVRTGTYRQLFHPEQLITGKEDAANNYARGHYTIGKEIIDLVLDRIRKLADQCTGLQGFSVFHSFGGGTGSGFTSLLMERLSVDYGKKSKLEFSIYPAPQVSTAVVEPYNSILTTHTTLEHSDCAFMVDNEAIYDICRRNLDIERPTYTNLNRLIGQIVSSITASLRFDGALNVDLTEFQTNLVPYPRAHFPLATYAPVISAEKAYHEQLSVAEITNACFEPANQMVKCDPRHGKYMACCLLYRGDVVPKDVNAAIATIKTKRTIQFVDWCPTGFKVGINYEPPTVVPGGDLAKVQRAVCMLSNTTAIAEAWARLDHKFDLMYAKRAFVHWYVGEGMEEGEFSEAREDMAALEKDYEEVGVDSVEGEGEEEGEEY
# T1 sequence (P02554 whole entry partner): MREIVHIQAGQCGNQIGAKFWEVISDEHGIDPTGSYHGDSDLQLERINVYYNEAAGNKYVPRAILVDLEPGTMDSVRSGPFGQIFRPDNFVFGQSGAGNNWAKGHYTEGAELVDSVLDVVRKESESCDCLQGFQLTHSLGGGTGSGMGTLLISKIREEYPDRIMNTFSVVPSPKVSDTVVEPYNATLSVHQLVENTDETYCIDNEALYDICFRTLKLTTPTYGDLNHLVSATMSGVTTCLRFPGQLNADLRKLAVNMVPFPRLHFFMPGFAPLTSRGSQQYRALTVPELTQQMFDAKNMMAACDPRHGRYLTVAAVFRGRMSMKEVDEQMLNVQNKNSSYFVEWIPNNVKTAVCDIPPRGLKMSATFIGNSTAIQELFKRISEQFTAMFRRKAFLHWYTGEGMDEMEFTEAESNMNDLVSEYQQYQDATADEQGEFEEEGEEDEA
row,SMILES,IC50
1,"C[C@@H]1CN(c2cccc(NC(=O)c3ccc(NS(=O)(=O)CCO)cc3N3CCC4(CC3)CC4)c2F)CCO1 [Example 103-2, (R)-N-(2-fluoro-3-(2-methylmorpholino)phenyl)-4-((2-hydroxyethyl)sulfonamido)-2-(6-azaspiro[2.5]octan-6-yl)benzamide]",101 nM
2,"C[C@@H]1CN(c2cc(NC(=O)c3ccc(NS(=O)(=O)CCO)cc3N3CCC4(CC3)CC4)ccc2F)CCO1 [Example 103-4, (R)-N-(4-fluoro-3-(2-methylmorpholino)phenyl)-4-((2-hydroxyethyl)sulfonamido)-2-(6-azaspiro[2.5]octan-6-yl)benzamide]",177 nM
3,"Cc1cc(NC(=O)c2ccc(NS(=O)(=O)CCO)cc2N2CCC3(CC2)CC3)cc(N2CCC(F)(F)CC2)c1 [Example 104, N-(3-(4,4-difluoropiperidin-1-yl)-5-methylphenyl)-4-((2-hydroxyethyl)sulfonamido)-2-(6-azaspiro[2.5]octan-6-yl)benzamide]",34 nM
4,"O=C(Nc1cccc(N2CCC(F)(F)CC2)c1)c1ccc(NS(=O)(=O)CCO)cc1N1CCC2(CC1)CC2 [Example 104-1, N-(3-(4,4-difluoropiperidin-1-yl)phenyl)-4-((2-hydroxyethyl)sulfonamido)-2-(6-azaspiro[2.5]octan-6-yl)benzamide]",12 nM
5,"O=C(Nc1cccc(N2CCC(F)(F)CC2)c1F)c1ccc(NS(=O)(=O)CCO)cc1N1CCC2(CC1)CC2 [Example 104-2, N-(3-(4,4-difluoropiperidin-1-yl)-2-fluorophenyl)-4-((2-hydroxyethyl)sulfonamido)-2-(6-azaspiro[2.5]octan-6-yl)benzamide]",29 nM
6,"CC(C)(O)COc1cccc(NC(=O)c2ccc(NS(=O)(=O)CCO)cc2N2CCC3(CC2)CC3)c1 [Example 106, N-(3-(2-Hydroxy-2-methylpropoxy)phenyl)-4-((2-hydroxyethyl)sulfonamido)-2-(6-azaspiro[2.5]octan-6-yl)benzamide]",78 nM
7,"CC(C)(C)NS(=O)(=O)c1cccc(NC(=O)c2ccc(S(=O)(=O)N3CCC3)cc2N2CCC3(CC2)CC3)c1 [Example 107, 4-(Azetidin-1-ylsulfonyl)-N-(3-(N-(tert-butyl)sulfamoyl)phenyl)-2-(6-azaspiro[2.5]octan-6-yl)benzamide]",44 nM
8,"CC(C)(C)NS(=O)(=O)c1cccc(NC(=O)c2ccc(S(=O)(=O)NC(C)(C)CO)cc2N2CCC3(CC2)CC3)c1 [Example 107-1, N-(3-(N-(tert-butyl)sulfamoyl)phenyl)-4-(N-(1-hydroxy-2-methylpropan-2-yl)sulfamoyl)-2-(6-azaspiro[2.5]octan-6-yl)benzamide]",60 nM
9,"CC(C)(C)NS(=O)(=O)c1cccc(NC(=O)c2ccc(S(=O)(=O)NCCO)cc2N2CCC3(CC2)CC3)c1 [Example 107-2, N-(3-(N-(tert-butyl)sulfamoyl)phenyl)-4-(N-(2-hydroxyethyl)sulfamoyl)-2-(6-azaspiro[2.5]octan-6-yl)benzamide]",43 nM
10,"CN(C)S(=O)(=O)c1ccc(C(=O)Nc2cccc(S(=O)(=O)NC(C)(C)C)c2)c(N2CCC3(CC2)CC3)c1 [Example 107-3, N-(3-(N-(tert-butyl)sulfamoyl)phenyl)-4-(N,N-dimethylsulfamoyl)-2-(6-azaspiro[2.5]octan-6-yl)benzamide]",70 nM
11,"CNS(=O)(=O)c1ccc(C(=O)Nc2cccc(S(=O)(=O)NC(C)(C)C)c2)c(N2CCC3(CC2)CC3)c1 [Example 107-4, N-(3-(N-(tert-butyl)sulfamoyl)phenyl)-4-(N-methylsulfamoyl)-2-(6-azaspiro[2.5]octan-6-yl)benzamide]",29 nM
12,"CC(C)(C)NS(=O)(=O)c1cccc(NC(=O)c2ccc(S(=O)(=O)NC3COC3)cc2N2CCC3(CC2)CC3)c1 [Example 107-5, N-(3-(N-(tert-butyl)sulfamoyl)phenyl)-4-(N-(oxetan-3-yl)sulfamoyl)-2-(6-azaspiro[2.5]octan-6-yl)benzamide]",60 nM
13,"CC(C)(C)NS(=O)(=O)c1cccc(NC(=O)c2ccc(S(=O)(=O)NC3CC3)cc2N2CCC3(CC2)CC3)c1 [Example 107-6, N-(3-(N-(tert-butyl)sulfamoyl)phenyl)-4-(N-cyclopropylsulfamoyl)-2-(6-azaspiro[2.5]octan-6-yl)benzamide]",36 nM
14,"CC(C)(C)NS(=O)(=O)c1cccc(NC(=O)c2ccc(S(=O)(=O)NC3(C)CC3)cc2N2CCC3(CC2)CC3)c1 [Example 107-7, N-(3-(N-(tert-butyl)sulfamoyl)phenyl)-4-(N-(1-methylcyclopropyl)sulfamoyl)-2-(6-azaspiro[2.5]octan-6-yl)benzamide]",52 nM
15,"CC(C)(C)NS(=O)(=O)c1cccc(NC(=O)c2ccc(S(N)(=O)=O)cc2N2CCC3(CC2)CC3)c1 [Example 107-8, N-(3-(N-(tert-butyl)sulfamoyl)phenyl)-2-(6-azaspiro[2.5]octan-6-yl)-4-sulfamoylbenzamide]",40 nM
16,"Cn1ccnc1-c1ccc(C(=O)Nc2cccc(S(=O)(=O)NC(C)(C)C)c2)c(N2CCC3(CC2)CC3)c1 [Example 109, N-(3-(N-(tert-butyl)sulfamoyl)phenyl)-4-(1-methyl-1H-imidazol-2-yl)-2-(6-azaspiro[2.5]octan-6-yl)benzamide]",124 nM
17,"Cn1nccc1-c1ccc(C(=O)Nc2cccc(S(=O)(=O)NC(C)(C)C)c2)c(N2CCC3(CC2)CC3)c1 [Example 109-1, N-(3-(N-(tert-butyl)sulfamoyl)phenyl)-4-(1-methyl-1H-pyrazol-5-yl)-2-(6-azaspiro[2.5]octan-6-yl)benzamide]",601 nM
18,"Cn1cc(-c2ccc(C(=O)Nc3cccc(S(=O)(=O)NC(C)(C)C)c3)c(N3CCC4(CC3)CC4)c2)cn1 [Example 109-2, N-(3-(N-(tert-butyl)sulfamoyl)phenyl)-4-(1-methyl-1H-pyrazol-4-yl)-2-(6-azaspiro[2.5]octan-6-yl)benzamide]",1090 nM
19,"CC(C)(C)NS(=O)(=O)c1cccc(NC(=O)c2ccc(-c3ncco3)cc2N2CCC3(CC2)CC3)c1 [Example 109-3, N-(3-(N-(tert-butyl)sulfamoyl)phenyl)-4-(oxazol-2-yl)-2-(6-azaspiro[2.5]octan-6-yl)benzamide]",534 nM
20,"CC(C)(C)NS(=O)(=O)c1cccc(NC(=O)c2ccc(NC(C)(C)CO)cc2N2CCC3(CC2)CC3)c1 [Example 110, N-(3-(N-(tert-Butyl)sulfamoyl)phenyl)-4-((1-hydroxy-2-methylpropan-2-yl)amino)-2-(6-azaspiro[2.5]octan-6-yl)benzamide]",58 nM
21,"CC(C)(C)NS(=O)(=O)c1cccc(NC(=O)c2ccc(NCCO)cc2N2CCC3(CC2)CC3)c1 [Example 110-1, N-(3-(N-(tert-butyl)sulfamoyl)phenyl)-4-((2-hydroxyethyl)amino)-2-(6-azaspiro[2.5]octan-6-yl)benzamide]",134 nM
22,"CC(C)(C)NS(=O)(=O)c1cccc(NC(=O)c2ccc(C(=O)NCCO)cc2N2CCC3(CC2)CC3)c1 [Example 111, N-(3-(N-(tert-Butyl)sulfamoyl)phenyl)-N^4-(2-hydroxyethyl)-2-(6-azaspiro[2.5]octan-6-yl)terephthalamide]",124 nM
23,"CNC(=O)c1ccc(C(=O)Nc2cccc(S(=O)(=O)NC(C)(C)C)c2)c(N2CCC3(CC2)CC3)c1 [Example 111-1, N^1-(3-(N-(tert-butyl)sulfamoyl)phenyl)-N^4-methyl-2-(6-azaspiro[2.5]octan-6-yl)terephthalamide]",132 nM
24,"CN(CCO)C(=O)c1ccc(C(=O)Nc2cccc(S(=O)(=O)NC(C)(C)C)c2)c(N2CCC3(CC2)CC3)c1 [Example 111-2, N^1-(3-(N-(tert-butyl)sulfamoyl)phenyl)-N^4-(2-hydroxyethyl)-N^4-methyl-2-(6-azaspiro[2.5]octan-6-yl)terephthalamide]",201 nM
25,"CC(C)(C)NS(=O)(=O)c1cccc(NC(=O)c2ccc(C(=O)NC(C)(C)CO)cc2N2CCC3(CC2)CC3)c1 [Example 111-3, N^1-(3-(N-(tert-butyl)sulfamoyl)phenyl)-N^4-(1-hydroxy-2-methylpropan-2-yl)-2-(6-azaspiro[2.5]octan-6-yl)terephthalamide]",272 nM
26,"O=C(NCCO)c1ccc(C(=O)Nc2cccc(S(=O)(=O)C3CCCC3)c2)c(N2CCC3(CC2)CC3)c1 [Example 111-4, N^1-(3-(cyclopentylsulfonyl)phenyl)-N^4-(2-hydroxyethyl)-2-(6-azaspiro[2.5]octan-6-yl)terephthalamide]",139 nM
27,"C[S@@](=N)(=O)c1cccc(NC(=O)c2ccc(NS(=O)(=O)CCO)cc2N2CCC3(CC2)CC3)c1 [Example 113-1, (R)-4-((2-hydroxyethyl)sulfonamido)-N-(3-(S-methylsulfonimidoyl)phenyl)-2-(6-azaspiro[2.5]octan-6-yl)benzamide]",429 nM
28,"C[S@](=N)(=O)c1cccc(NC(=O)c2ccc(NS(=O)(=O)CCO)cc2N2CCC3(CC2)CC3)c1 [Example 113-2, (S)-4-((2-hydroxyethyl)sulfonamido)-N-(3-(S-methylsulfonimidoyl)phenyl)-2-(6-azaspiro[2.5]octan-6-yl)benzamide]",488 nM
29,"CC(C)(C)[S@@](=N)(=O)c1cccc(NC(=O)c2ccc(NS(=O)(=O)CCO)cc2N2CCC3(CC2)CC3)c1 [Example 114-1, (R)-4-((2-hydroxyethyl)sulfonamido)-N-(3-(2-methylpropan-2-ylsulfonimidoyl)phenyl)-2-(6-azaspiro[2.5]octan-6-yl)benzamide]",194 nM
